Reference: patent publication US20260217767A1, “NOVEL A4B7 THIOETHER PEPTIDE DIMER ANTAGONISTS” (Protagonist Therapeutics, Inc., priority 2014, published 2026)
*1 amine or outer side, *2 acyl side, *3 side chain or, on linkers, in order; H or OH if unused. Where a SMILES comes first, the peptide text is derived from it. Bridges are numbered along the chain shown (N, C = ends). Roman numbers before positions name the chains, in order. [ ]: non-standard residue; d: D form. Bip = N[C@@H](Cc1ccc(-c2ccccc2)cc1)C(=O)O; Diglycolyl = O=C(COCC(=O)[*:2])[*:1]; NMeR = CN[C@@H](CCCNC(=N)N)C(=O)O; Tic = O=C(O)[C@@H]1Cc2ccccc2CN1; X1 = O=C(c1ccccc1C[*:2])[*:1]; Pen = CC(C)(S)[C@H](N)C(=O)O

Each molecule was assayed against T1, RPMI 8866 cells (Homo sapiens, UniProt P13612+P26010) (assay: α4β7-MAdCAM Cell Adhesion Assay). Conditions: thioether peptide dimers, Table 7; read-out: Cell-Adhesion A4B7.
T1 sequence (P13612 34-1032): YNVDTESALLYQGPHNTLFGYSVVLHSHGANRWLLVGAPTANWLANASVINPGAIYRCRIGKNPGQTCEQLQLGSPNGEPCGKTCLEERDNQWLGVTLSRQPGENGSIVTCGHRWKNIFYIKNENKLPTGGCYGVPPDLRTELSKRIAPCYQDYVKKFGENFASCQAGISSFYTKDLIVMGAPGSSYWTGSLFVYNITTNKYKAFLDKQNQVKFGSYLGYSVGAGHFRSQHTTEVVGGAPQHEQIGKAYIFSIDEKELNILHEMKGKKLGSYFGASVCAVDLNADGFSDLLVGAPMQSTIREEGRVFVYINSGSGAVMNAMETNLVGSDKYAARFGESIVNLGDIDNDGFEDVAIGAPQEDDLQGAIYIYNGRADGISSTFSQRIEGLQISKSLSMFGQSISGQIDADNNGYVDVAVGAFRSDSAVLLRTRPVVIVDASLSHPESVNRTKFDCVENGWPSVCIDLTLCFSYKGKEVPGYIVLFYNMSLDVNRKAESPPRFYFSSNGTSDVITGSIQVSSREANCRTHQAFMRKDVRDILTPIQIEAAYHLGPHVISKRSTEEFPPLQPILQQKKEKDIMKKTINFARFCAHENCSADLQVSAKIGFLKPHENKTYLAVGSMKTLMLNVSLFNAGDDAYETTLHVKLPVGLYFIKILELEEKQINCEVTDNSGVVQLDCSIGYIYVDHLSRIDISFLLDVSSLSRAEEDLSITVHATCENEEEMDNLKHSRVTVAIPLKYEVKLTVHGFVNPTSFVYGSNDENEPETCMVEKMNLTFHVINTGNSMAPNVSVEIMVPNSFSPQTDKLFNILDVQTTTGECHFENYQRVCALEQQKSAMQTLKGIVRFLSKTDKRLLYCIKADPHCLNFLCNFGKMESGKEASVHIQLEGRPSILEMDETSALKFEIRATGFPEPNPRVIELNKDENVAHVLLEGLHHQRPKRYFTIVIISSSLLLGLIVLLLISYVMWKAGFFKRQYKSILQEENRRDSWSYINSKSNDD
T1 sequence (P26010 20-798): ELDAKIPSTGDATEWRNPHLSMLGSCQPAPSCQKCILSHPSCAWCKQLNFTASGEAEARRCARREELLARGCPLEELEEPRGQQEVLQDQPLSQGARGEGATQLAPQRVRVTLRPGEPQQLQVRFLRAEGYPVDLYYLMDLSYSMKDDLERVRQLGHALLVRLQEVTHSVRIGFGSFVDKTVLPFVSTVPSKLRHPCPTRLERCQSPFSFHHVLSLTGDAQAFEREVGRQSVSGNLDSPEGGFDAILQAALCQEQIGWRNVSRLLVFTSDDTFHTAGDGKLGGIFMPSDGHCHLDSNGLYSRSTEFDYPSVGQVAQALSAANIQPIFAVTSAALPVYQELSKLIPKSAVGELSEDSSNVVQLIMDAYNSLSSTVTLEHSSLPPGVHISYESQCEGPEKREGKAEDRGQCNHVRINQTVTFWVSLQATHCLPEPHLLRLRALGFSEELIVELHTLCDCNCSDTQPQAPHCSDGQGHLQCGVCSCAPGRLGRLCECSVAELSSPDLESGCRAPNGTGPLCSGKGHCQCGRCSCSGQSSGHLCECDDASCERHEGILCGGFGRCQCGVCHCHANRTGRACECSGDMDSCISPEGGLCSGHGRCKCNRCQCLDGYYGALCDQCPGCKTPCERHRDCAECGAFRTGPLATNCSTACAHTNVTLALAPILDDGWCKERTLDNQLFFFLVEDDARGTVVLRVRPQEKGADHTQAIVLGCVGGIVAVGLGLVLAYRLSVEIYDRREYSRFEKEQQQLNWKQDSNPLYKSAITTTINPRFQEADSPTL
Assay type: cell-based
Outline: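 RPMI 8866 cells (200,000/well) in DMEM with 1 mM MnCl2 and 0.1% BSA were allowed to adhere 30-45 min at 37° C to plates coated with rh MAdCAM-1/Fc (200 ng/well) in presence of serially diluted peptide. After washing, bound cells quantified by MTT, absorbance 570 nm, cell-free background subtracted.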
`CC(C)C[C@@H]1NC(=O)[C@H]([C@@H](C)O)NC(=O)[C@H](CC(=O)O)NC(=O)[C@H](CO)NC(=O)[C@H](CCCNC(=N)N)N(C)C(=O)c2ccccc2CSC(C)(C)[C@@H](C(=O)N[C@@H](Cc2ccccc2)C(=O)N[C@H](CCC(=O)O)C(=O)N[C@H](CCCCNC(=O)COCC(=O)NCCCC[C@@H](NC(=O)[C@@H](CCC(=O)O)NC(=O)[C@H](Cc2ccccc2)NC(=O)[C@H]2NC(=O)[C@H](CC(C)C)NC(=O)[C@H]([C@@H](C)O)NC(=O)[C@H](CC(=O)O)NC(=O)[C@H](CO)NC(=O)[C@H](CCCNC(=N)N)N(C)C(=O)c3ccccc3CSC2(C)C)C(=O)O)C(=O)O)NC1=O` [compound 204] (I: [NMeR]SDTL[Pen]F[dE][dK]-OH / II: [NMeR]SDTL[Pen]F[dE][dK]-OH; linker I:9-II:9 via Diglycolyl; linker I:N-I:6, II:N-II:6 via X1) gave an IC50 of less than 25 nM.
Work on `CC(C)C[C@@H]1NC(=O)[C@H]([C@@H](C)O)NC(=O)[C@H](CC(=O)O)NC(=O)[C@H](CO)NC(=O)[C@H](CCCNC(=N)N)N(C)C(=O)c2ccccc2CSC[C@@H](C(=O)N2Cc3ccccc3C[C@H]2C(=O)N[C@H](CCC(=O)O)C(=O)N[C@H](CCCCNC(=O)COCC(=O)NCCCC[C@@H](NC(=O)[C@@H](CCC(=O)O)NC(=O)[C@@H]2Cc3ccccc3CN2C(=O)[C@@H]2CSCc3ccccc3C(=O)N(C)[C@@H](CCCNC(=N)N)C(=O)N[C@@H](CO)C(=O)N[C@@H](CC(=O)O)C(=O)N[C@@H]([C@@H](C)O)C(=O)N[C@@H](CC(C)C)C(=O)N2)C(=O)O)C(=O)O)NC1=O` [compound 207] (I: [NMeR]SDTLC[Tic][dE][dK]-OH / II: [NMeR]SDTLC[Tic][dE][dK]-OH; linker I:9-II:9 via Diglycolyl; linker I:N-I:6, II:N-II:6 via X1) yielded an IC50 of less than 25 nM.
In the case of `CC(C)C[C@@H]1NC(=O)[C@H]([C@@H](C)O)NC(=O)[C@H](CC(=O)O)NC(=O)[C@H](CO)NC(=O)[C@H](CCCNC(=N)N)N(C)C(=O)c2ccccc2CSC(C)(C)[C@@H](C(=O)N[C@@H](Cc2ccc(-c3ccccc3)cc2)C(=O)N[C@H](CCC(=O)O)C(=O)N[C@H](CCCCNC(=O)COCC(=O)NCCCC[C@@H](NC(=O)[C@@H](CCC(=O)O)NC(=O)[C@H](Cc2ccc(-c3ccccc3)cc2)NC(=O)[C@H]2NC(=O)[C@H](CC(C)C)NC(=O)[C@H]([C@@H](C)O)NC(=O)[C@H](CC(=O)O)NC(=O)[C@H](CO)NC(=O)[C@H](CCCNC(=N)N)N(C)C(=O)c3ccccc3CSC2(C)C)C(=O)O)C(=O)O)NC1=O` [compound 208] (I: [NMeR]SDTL[Pen][Bip][dE][dK]-OH / II: [NMeR]SDTL[Pen][Bip][dE][dK]-OH; linker I:9-II:9 via Diglycolyl; linker I:N-I:6, II:N-II:6 via X1), the IC50 is reported as less than 25 nM.
With `CC(C)C[C@@H]1NC(=O)[C@H]([C@@H](C)O)NC(=O)[C@H](CC(=O)O)NC(=O)[C@H](CO)NC(=O)[C@H](CCCNC(=N)N)N(C)C(=O)c2ccccc2CSC(C)(C)[C@@H](C(=O)N[C@@H](Cc2c[nH]c3ccccc23)C(=O)N[C@H](CCC(=O)O)C(=O)N[C@H](CCCCNC(=O)COCC(=O)NCCCC[C@@H](NC(=O)[C@@H](CCC(=O)O)NC(=O)[C@H](Cc2c[nH]c3ccccc23)NC(=O)[C@H]2NC(=O)[C@H](CC(C)C)NC(=O)[C@H]([C@@H](C)O)NC(=O)[C@H](CC(=O)O)NC(=O)[C@H](CO)NC(=O)[C@H](CCCNC(=N)N)N(C)C(=O)c3ccccc3CSC2(C)C)C(=O)O)C(=O)O)NC1=O` [compound 209] (I: [NMeR]SDTL[Pen]W[dE][dK]-OH / II: [NMeR]SDTL[Pen]W[dE][dK]-OH; linker I:9-II:9 via Diglycolyl; linker I:N-I:6, II:N-II:6 via X1) the IC50 was less than 25 nM.
